Assay results taken from BindingDB's records for doi:10.1046/j.1471-4159.2002.00817.x (Uppsala University, 2002).

Columns and labels:
[1] = biological target: T1, Neuropeptide Y receptor type 1 (Gallus gallus, UniProt Q8QFM1)
T1 sequence (Q8QFM1 whole entry): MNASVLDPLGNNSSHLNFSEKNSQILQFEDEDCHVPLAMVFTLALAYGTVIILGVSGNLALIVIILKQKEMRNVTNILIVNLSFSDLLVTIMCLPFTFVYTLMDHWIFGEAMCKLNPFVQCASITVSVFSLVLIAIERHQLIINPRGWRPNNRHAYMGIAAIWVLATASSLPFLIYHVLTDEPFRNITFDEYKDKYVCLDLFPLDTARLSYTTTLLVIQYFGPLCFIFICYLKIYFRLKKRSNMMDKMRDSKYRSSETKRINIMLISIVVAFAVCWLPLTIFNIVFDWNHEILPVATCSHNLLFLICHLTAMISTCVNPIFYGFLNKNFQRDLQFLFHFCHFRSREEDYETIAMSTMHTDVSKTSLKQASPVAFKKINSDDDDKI

[2] = biological target: T2, Neuropeptide Y receptor type 5 (Gallus gallus, UniProt Q8QFM2)
T2 sequence (Q8QFM2 whole entry): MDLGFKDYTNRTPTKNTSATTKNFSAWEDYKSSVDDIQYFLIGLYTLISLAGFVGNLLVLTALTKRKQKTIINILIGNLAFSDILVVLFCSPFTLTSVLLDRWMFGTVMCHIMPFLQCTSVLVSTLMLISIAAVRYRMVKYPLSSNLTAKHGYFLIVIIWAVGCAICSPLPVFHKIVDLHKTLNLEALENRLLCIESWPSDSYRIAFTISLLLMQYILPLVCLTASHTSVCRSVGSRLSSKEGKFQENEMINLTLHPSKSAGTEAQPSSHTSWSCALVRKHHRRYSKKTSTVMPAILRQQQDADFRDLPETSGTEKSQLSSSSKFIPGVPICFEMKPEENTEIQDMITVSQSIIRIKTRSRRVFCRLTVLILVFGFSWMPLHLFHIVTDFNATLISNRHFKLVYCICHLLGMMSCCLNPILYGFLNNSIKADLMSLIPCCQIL

Ki [1] [µM]	Ki [2] [µM]	Compound
> 10	0.00048	CC[C@H](C)[C@H](NC(=O)[C@H](Cc1ccc(O)cc1)NC(=O)[C@H](CCCNC(=N)N)NC(=O)[C@H](CCCNC(=N)N)NC(=O)[C@H](CC(C)C)NC(=O)[C@H](CC(=O)O)NC(=O)[C@H](C)NC(=O)[C@H](C)NC(=O)[C@H](Cc1ccc(O)cc1)NC(=O)[C@H](CCC(N)=O)NC(=O)[C@H](C)NC(=O)[C@H](CCSC)NC(=O)[C@H](CCC(N)=O)NC(=O)[C@H](CCC(=O)O)NC(=O)[C@@H]1CCCN1C(=O)[C@@H](NC(=O)[C@H](C)NC(=O)[C@H](CC(N)=O)NC(=O)[C@H](CC(=O)O)NC(=O)CNC(=O)[C@@H]1CCCN1C(=O)[C@H](Cc1ccc(O)cc1)NC(=O)[C@@H](NC(=O)[C@@H]1CCCN1C(=O)[C@H](CCC(=O)O)NC(=O)[C@H](CC(C)C)NC(=O)[C@@H]1CCCN1C(=O)[C@H](C)N)C(C)C)[C@@H](C)O)C(=O)N[C@@H](CC(N)=O)C(=O)N[C@@H](CCSC)C(=O)N[C@@H](CC(C)C)C(=O)N[C@H](C(=O)N[C@@H](CCCNC(=N)N)C(=O)N1CCC[C@H]1C(=O)N[C@@H](CCCNC(=N)N)C(=O)N[C@@H](Cc1ccc(O)cc1)C(N)=O)[C@@H](C)O [CAS_59763-91-6]
> 10	> 10	CN(C)CC1CCC(CN=C(N)c2ccc(CC(NC(=O)C(Cc3ccccc3)NS(=O)(=O)c3ccc4ccccc4c3)C(=O)N3CCCC3)cc2)CC1 (stereo unspecified) [CAS_5312150]
> 10		Nc1nc(NC[C@H]2CC[C@H](CNS(=O)(=O)c3cccc4ccccc34)CC2)nc2ccccc12 [CGP 71683]
	> 10	N=C(N)NCCCC(NC(=O)C(c1ccccc1)c1ccccc1)C(=O)NCc1ccc(O)cc1 (stereo unspecified) [NSC_5311023]
> 10		NC(N)=NCCCC(NC(=O)CC1(CC(=O)N2CCN(C3c4ccccc4NC(=O)c4ccccc43)CC2)CCCC1)C(=O)NCCn1c(=O)n(-c2ccccc2)n(-c2ccccc2)c1=O (stereo unspecified) [NSC_5311024]
> 10	0.00468	H-GPSQPTYPGDDAPVEDLIRFYNDLQQYLNVVTRHRY-NH2 [NSC_0]

Compound	Ki [1] [µM]	Ki [2] [µM]
O=c1oc2ccccc2c(O)c1C1CC(c2ccc(-c3ccccc3)cc2)Cc2ccccc21 (stereo unspecified) [NSC_41735]	> 10	0.00081
